The text below walks through data of patent publication US7820623B2 (priority 2006, dated 2010).

For assay [1], the system named is thapsigargin-induced IFN-g production in human whole blood. Format: cell-based.
Assay [2] has as its system thapsigargin-induced IL-2 production in human whole blood.
The mark [3] stands for this setting: read-out: Analogue Activity (IC50) WB/IFNg.
Where [4] appears, read: read-out: Analogue Activity (IC50) WB/IL-2.

Like-named read-outs stand apart in the source and are kept apart here. Bridge positions count the residues as written; N and C are the ends. Square brackets hold non-standard residues; d marks the D form. Peptide text beside a SMILES is read from it. 1Nal = N[C@@H](Cc1cccc2ccccc12)C(=O)O

Turning to `CC[C@H](C)[C@@H]1NC(=O)[C@H](CCCCN)NC(=O)[C@@H](NC(=O)[C@H](CCCCN)NC(=O)[C@H](CCC(=O)O)NC(=O)[C@H](CC(N)=O)NC(=O)[C@@H](NC(=O)[C@@H](NC(=O)[C@@H](NC(=O)CN)C(C)C)[C@@H](C)CC)[C@@H](C)CC)CSSC[C@@H]2NC(=O)[C@H](CCCCN)NC(=O)CNC(=O)[C@H](Cc3ccccc3)NC(=O)[C@H](CCCNC(=N)N)NC(=O)[C@H](CCSC)NC(=O)CNC(=O)[C@H](C)NC(=O)[C@H](CCCCN)NC(=O)[C@H](CCCCN)NC(=O)[C@@H]3CSSC[C@@H](C(=O)N[C@H](C(=O)N4CCC[C@H]4C(=O)N[C@@H](CCCCN)C(=O)O)[C@@H](C)O)NC(=O)[C@H](Cc4c[nH]cn4)NC(=O)[C@H](CSSC[C@H](NC(=O)[C@H](CCC(N)=O)NC(=O)[C@H](CCCNC(=N)N)NC(=O)[C@H](CO)NC1=O)C(=O)N[C@@H](CC(C)C)C(=O)N[C@@H](CCC(=O)O)C(=O)N1CCC[C@H]1C(=O)N3)NC(=O)[C@H](CCCCN)NC(=O)CNC(=O)[C@H](CC(N)=O)NC(=O)[C@H](CCSC)NC2=O` [V6E] (H-GVIINEKCKISRQCLEPCKKAGMRFGKCMNGKCHCTPK-OH; disulfide 8-28, 14-33, 18-35), the figures for the IC50 in assay [1] (setting [3]) and in assay [2] (setting [4]) were 0.068 nM and 0.048 nM, respectively.
As for “R12A, E16K, K20D (GVIINVKCKISAQCLKPCKDAGMRFGKCMNGKCHCTPK)”, the IC50 in assay [1] (read-out: WB/IFNg (IC50)) was determined as 0.092 nM; in assay [2] (read-out: WB/IL-2 (IC50)), 0.041 nM.
As for `CC[C@H](C)[C@@H]1NC(=O)[C@H](CCCCN)NC(=O)[C@@H](NC(=O)[C@H](Cc2cccc3ccccc23)NC(=O)[C@@H](NC(=O)[C@H](CC(N)=O)NC(=O)[C@@H](NC(=O)[C@@H](NC(=O)[C@@H](NC(=O)CN)C(C)C)[C@@H](C)CC)[C@@H](C)CC)C(C)C)CSSC[C@@H]2NC(=O)[C@H](CCCCN)NC(=O)CNC(=O)[C@H](Cc3ccccc3)NC(=O)[C@H](CCCNC(=N)N)NC(=O)[C@H](CCSC)NC(=O)CNC(=O)[C@H](C)NC(=O)[C@H](CCCCN)NC(=O)[C@H](CCCCN)NC(=O)[C@@H]3CSSC[C@@H](C(=O)N[C@H](C(=O)N4CCC[C@H]4C(=O)N[C@@H](CCCCN)C(=O)O)[C@@H](C)O)NC(=O)[C@H](Cc4c[nH]cn4)NC(=O)[C@H](CSSC[C@H](NC(=O)[C@H](CCC(N)=O)NC(=O)[C@H](CCCNC(=N)N)NC(=O)[C@H](CO)NC1=O)C(=O)N[C@@H](CC(C)C)C(=O)N[C@@H](CCC(=O)O)C(=O)N1CCC[C@H]1C(=O)N3)NC(=O)[C@H](CCCCN)NC(=O)CNC(=O)[C@H](CC(N)=O)NC(=O)[C@H](CCSC)NC2=O` [K7Nal] (H-GVIINV[1Nal]CKISRQCLEPCKKAGMRFGKCMNGKCHCTPK-OH; disulfide 8-28, 14-33, 18-35), the IC50 is 0.246 nM in assay [1] (setting [3]) and 0.222 nM in assay [2] (setting [4]).
Consider `CC[C@H](C)[C@@H]1NC(=O)[C@H](CCCCN)NC(=O)[C@@H](NC(=O)[C@H](CCCCN)NC(=O)[C@@H](NC(=O)[C@H](CC(N)=O)NC(=O)[C@@H](NC(=O)[C@@H](NC(=O)[C@@H](NC(=O)CN)C(C)C)[C@@H](C)CC)[C@@H](C)CC)C(C)C)CSSC[C@@H]2NC(=O)[C@H](CCCCN)NC(=O)CNC(=O)[C@H](Cc3ccccc3)NC(=O)[C@H](CCCNC(=N)N)NC(=O)[C@H](CCSC)NC(=O)CNC(=O)[C@H](C)NC(=O)[C@H](CCCCN)NC(=O)[C@H](C)NC(=O)[C@@H]3CSSC[C@@H](C(=O)N[C@H](C(=O)N4CCC[C@H]4C(=O)N[C@@H](CCCCN)C(=O)O)[C@@H](C)O)NC(=O)[C@H](Cc4c[nH]cn4)NC(=O)[C@H](CSSC[C@H](NC(=O)[C@H](CCC(N)=O)NC(=O)[C@H](CCCNC(=N)N)NC(=O)[C@H](CO)NC1=O)C(=O)N[C@@H](CC(C)C)C(=O)N[C@@H](CCC(=O)O)C(=O)N1CCC[C@H]1C(=O)N3)NC(=O)[C@H](CCCCN)NC(=O)CNC(=O)[C@H](CC(N)=O)NC(=O)[C@H](CCSC)NC2=O` [K19A] (H-GVIINVKCKISRQCLEPCAKAGMRFGKCMNGKCHCTPK-OH; disulfide 8-28, 14-33, 18-35), for which the IC50 in assay [1] (setting [3]) and in assay [2] (setting [4]) was 0.163 nM throughout.
On to `CC[C@H](C)[C@@H]1NC(=O)[C@H](CCCCN)NC(=O)[C@@H](NC(=O)[C@H](CCCCN)NC(=O)[C@@H](NC(=O)[C@H](CC(N)=O)NC(=O)[C@@H](NC(=O)[C@@H](NC(=O)[C@@H](NC(=O)CN)C(C)C)[C@@H](C)CC)[C@@H](C)CC)C(C)C)CSSC[C@@H]2NC(=O)[C@H](CCCCN)NC(=O)CNC(=O)[C@H](Cc3ccccc3)NC(=O)[C@H](CCCNC(=N)N)NC(=O)[C@H](CCSC)NC(=O)CNC(=O)[C@H](CCCNC(=N)N)NC(=O)[C@H](CCCCN)NC(=O)[C@H](CCCCN)NC(=O)[C@@H]3CSSC[C@@H](C(=O)N[C@H](C(=O)N4CCC[C@H]4C(=O)N[C@@H](CCCCN)C(=O)O)[C@@H](C)O)NC(=O)[C@H](Cc4c[nH]cn4)NC(=O)[C@H](CSSC[C@H](NC(=O)[C@H](CCC(N)=O)NC(=O)[C@H](CCCNC(=N)N)NC(=O)[C@H](CO)NC1=O)C(=O)N[C@@H](CC(C)C)C(=O)N[C@@H](CCC(=O)O)C(=O)N1CCC[C@H]1C(=O)N3)NC(=O)[C@H](CCCCN)NC(=O)CNC(=O)[C@H](CC(N)=O)NC(=O)[C@H](CCSC)NC2=O` [A21R] (H-GVIINVKCKISRQCLEPCKKRGMRFGKCMNGKCHCTPK-OH; disulfide 8-28, 14-33, 18-35), for which the IC50 in assay [1] (setting [3]) was found to be 0.149 nM; in assay [2] (setting [4]), 0.09 nM.
As for `CC[C@H](C)[C@@H]1NC(=O)[C@H](CCCCN)NC(=O)[C@@H](NC(=O)[C@H](CCCCN)NC(=O)[C@@H](NC(=O)[C@H](CC(N)=O)NC(=O)[C@@H](NC(=O)[C@@H](NC(=O)[C@@H](NC(=O)CN)C(C)C)[C@@H](C)CC)[C@@H](C)CC)C(C)C)CSSC[C@@H]2NC(=O)[C@H](CCCCN)NC(=O)CNC(=O)[C@H](Cc3ccccc3)NC(=O)[C@H](CCCNC(=N)N)NC(=O)[C@H](CCSC)NC(=O)CNC(=O)[C@H](C)NC(=O)[C@H](CCCCN)NC(=O)[C@H](CCCCN)NC(=O)[C@@H]3CSSC[C@@H](C(=O)N[C@H](C(=O)N4CCC[C@H]4C(=O)N[C@@H](CCCCN)C(=O)O)[C@@H](C)O)NC(=O)[C@H](Cc4c[nH]cn4)NC(=O)[C@H](CSSC[C@H](NC(=O)[C@H](CCC(N)=O)NC(=O)[C@H](CCCNC(=N)N)NC(=O)[C@H](CO)NC1=O)C(=O)N[C@@H](CC(C)C)C(=O)N[C@@H](CCC(=O)O)C(=O)N[C@@H](CCC(=O)O)C(=O)N3)NC(=O)[C@H](CCCCN)NC(=O)CNC(=O)[C@H](CC(N)=O)NC(=O)[C@H](CCSC)NC2=O` [P17E] (H-GVIINVKCKISRQCLEECKKAGMRFGKCMNGKCHCTPK-OH; disulfide 8-28, 14-33, 18-35), the values for the IC50 in assay [1] (setting [3]) and in assay [2] (setting [4]) were 0.947 nM and 0.52 nM, respectively.
As to `CC[C@H](C)[C@@H]1NC(=O)[C@H](CCCCN)NC(=O)[C@@H](NC(=O)[C@H](CCCCN)NC(=O)[C@@H](NC(=O)[C@H](CC(N)=O)NC(=O)[C@@H](NC(=O)[C@@H](NC(=O)[C@@H](NC(=O)CN)C(C)C)[C@@H](C)CC)[C@@H](C)CC)C(C)C)CSSC[C@@H]2NC(=O)[C@H](CCCCN)NC(=O)CNC(=O)[C@H](Cc3ccccc3)NC(=O)[C@H](CCCNC(=N)N)NC(=O)[C@H](CCSC)NC(=O)CNC(=O)[C@H](C)NC(=O)[C@H](CCCCN)NC(=O)[C@H](CCCCN)NC(=O)[C@@H]3CSSC[C@@H](C(=O)N[C@H](C(=O)N4CCC[C@H]4C(=O)N[C@@H](CCCCN)C(=O)O)[C@@H](C)O)NC(=O)[C@H](Cc4c[nH]cn4)NC(=O)[C@H](CSSC[C@H](NC(=O)[C@H](CCC(N)=O)NC(=O)[C@H](CCCNC(=N)N)NC(=O)[C@H](CO)NC1=O)C(=O)N[C@@H](CC(C)C)C(=O)N[C@@H](CCCNC(=N)N)C(=O)N1CCC[C@H]1C(=O)N3)NC(=O)[C@H](CCCCN)NC(=O)CNC(=O)[C@H](CC(N)=O)NC(=O)[C@H](CCSC)NC2=O` [E16R] (H-GVIINVKCKISRQCLRPCKKAGMRFGKCMNGKCHCTPK-OH; disulfide 8-28, 14-33, 18-35), the IC50 in assay [1] (setting [3]) came out at 0.454 nM; in assay [2] (setting [4]), 0.556 nM.
Regarding `CC[C@H](C)[C@@H]1NC(=O)[C@H](CCCCN)NC(=O)[C@@H](NC(=O)[C@H](CCCCN)NC(=O)[C@@H](NC(=O)[C@H](CC(N)=O)NC(=O)[C@H](C)NC(=O)[C@@H](NC(=O)[C@@H](NC(=O)CN)C(C)C)[C@@H](C)CC)C(C)C)CSSC[C@@H]2NC(=O)[C@H](CCCCN)NC(=O)CNC(=O)[C@H](Cc3ccccc3)NC(=O)[C@H](CCCNC(=N)N)NC(=O)[C@H](CCSC)NC(=O)CNC(=O)[C@H](C)NC(=O)[C@H](CCCCN)NC(=O)[C@H](CCCCN)NC(=O)[C@@H]3CSSC[C@@H](C(=O)N[C@H](C(=O)N4CCC[C@H]4C(=O)N[C@@H](CCCCN)C(=O)O)[C@@H](C)O)NC(=O)[C@H](Cc4c[nH]cn4)NC(=O)[C@H](CSSC[C@H](NC(=O)[C@H](CCC(N)=O)NC(=O)[C@H](CCCNC(=N)N)NC(=O)[C@H](CO)NC1=O)C(=O)N[C@@H](CC(C)C)C(=O)N[C@@H](CCC(=O)O)C(=O)N1CCC[C@H]1C(=O)N3)NC(=O)[C@H](CCCCN)NC(=O)CNC(=O)[C@H](CC(N)=O)NC(=O)[C@H](CCSC)NC2=O` [I4A] (H-GVIANVKCKISRQCLEPCKKAGMRFGKCMNGKCHCTPK-OH; disulfide 8-28, 14-33, 18-35), the values for the IC50 in assay [1] (setting [3]) and in assay [2] (setting [4]) were 0.0873 nM and 0.111 nM, respectively.
As to `CC[C@H](C)[C@@H]1NC(=O)[C@H](CCCCN)NC(=O)[C@@H](NC(=O)[C@H](CCCCN)NC(=O)[C@@H](NC(=O)[C@H](CC(N)=O)NC(=O)[C@@H](NC(=O)[C@@H](NC(=O)[C@@H](NC(=O)CN)C(C)C)[C@@H](C)CC)[C@@H](C)CC)C(C)C)CSSC[C@@H]2NC(=O)[C@H](Cc3cccc4ccccc34)NC(=O)CNC(=O)[C@H](Cc3ccccc3)NC(=O)[C@H](CCCNC(=N)N)NC(=O)[C@H](CCSC)NC(=O)CNC(=O)[C@H](C)NC(=O)[C@H](CCCCN)NC(=O)[C@H](CCCCN)NC(=O)[C@@H]3CSSC[C@@H](C(=O)N[C@H](C(=O)N4CCC[C@H]4C(=O)N[C@@H](CCCCN)C(=O)O)[C@@H](C)O)NC(=O)[C@H](Cc4c[nH]cn4)NC(=O)[C@H](CSSC[C@H](NC(=O)[C@H](CCC(N)=O)NC(=O)[C@H](CCCNC(=N)N)NC(=O)[C@H](CO)NC1=O)C(=O)N[C@@H](CC(C)C)C(=O)N[C@@H](CCC(=O)O)C(=O)N1CCC[C@H]1C(=O)N3)NC(=O)[C@H](CCCCN)NC(=O)CNC(=O)[C@H](CC(N)=O)NC(=O)[C@H](CCSC)NC2=O` [K27Nal] (H-GVIINVKCKISRQCLEPCKKAGMRFG[1Nal]CMNGKCHCTPK-OH; disulfide 8-28, 14-33, 18-35), the IC50 in assay [1] (setting [3]) amounted to 27 nM; in assay [2] (setting [4]), 15 nM.
Consider “GVIINVACKISRQCLEPCKKAGMRFGKCMNGKCHCTPK [Ala-7 (SEQ ID No: 1406)]”, for which the IC50 came to 0.0591 nM in assay [1] (read-out: Average IC50 IFNg) and 0.0675 nM in assay [2] (read-out: Average IC50 IL-2).
